From PubChem BioAssay (NCI)
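Assay format: 96-well plates, 48-hour exposure. Abbreviation: GI50, concentration required for 50% inhibition of growth. TGI is the concentration that stops growth completely.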

Experiments:
Assay in all cases: DTP human tumour cell line panel, 48 h; in the data active = GI50 below about 0.43 µM; inactive = the rest
SF-539 CNS = test system: SF-539 CNS
HCT-15 colon = test system: HCT-15 colon
NCI-H23 lung = test system: NCI-H23 lung
SR leukemia = test system: SR leukemia
NCI/ADR-RES ovarian = test system: NCI/ADR-RES ovarian
HT29 colon = test system: HT29 colon
CAKI-1 renal = test system: CAKI-1 renal
A498 renal = test system: A498 renal
UACC-62 melanoma = test system: UACC-62 melanoma
HCT-116 colon = test system: HCT-116 colon
UO-31 renal = test system: UO-31 renal
NCI-H460 lung = test system: NCI-H460 lung
KM12 colon = test system: KM12 colon
MCF7 breast = test system: MCF7 breast
DU-145 prostate = test system: DU-145 prostate
SK-MEL-28 melanoma = test system: SK-MEL-28 melanoma
RXF 393 renal = test system: RXF 393 renal
IGROV1 ovarian = test system: IGROV1 ovarian
U251 CNS = test system: U251 CNS
SK-MEL-2 melanoma = test system: SK-MEL-2 melanoma
SNB-75 CNS = test system: SNB-75 CNS
COLO 205 colon = test system: COLO 205 colon
CCRF-CEM leukemia = test system: CCRF-CEM leukemia
T-47D breast = test system: T-47D breast
SNB-19 CNS = test system: SNB-19 CNS
ACHN renal = test system: ACHN renal
SK-OV-3 ovarian = test system: SK-OV-3 ovarian
M14 melanoma = test system: M14 melanoma
SF-268 CNS = test system: SF-268 CNS
NCI-H522 lung = test system: NCI-H522 lung
OVCAR-5 ovarian = test system: OVCAR-5 ovarian
HOP-62 NSCLC = test system: HOP-62 NSCLC
MALME-3M melanoma = test system: MALME-3M melanoma
BT-549 breast = test system: BT-549 breast
TK-10 renal = test system: TK-10 renal
OVCAR-8 ovarian = test system: OVCAR-8 ovarian
HCC-2998 colon = test system: HCC-2998 colon
K-562 leukemia = test system: K-562 leukemia
SK-MEL-5 melanoma = test system: SK-MEL-5 melanoma
MDA-MB-435 = test system: MDA-MB-435
UACC-257 melanoma = test system: UACC-257 melanoma
SF-295 CNS = test system: SF-295 CNS
MOLT-4 leukemia = test system: MOLT-4 leukemia
HL-60(TB) leukemia = test system: HL-60(TB) leukemia
786-0 renal = test system: 786-0 renal
SN12C renal = test system: SN12C renal
EKVX NSCLC = test system: EKVX NSCLC
A549 NSCLC = test system: A549 NSCLC
RPMI-8226 leukemia = test system: RPMI-8226 leukemia
LOX IMVI melanoma = test system: LOX IMVI melanoma
PC-3 prostate = test system: PC-3 prostate
HOP-92 NSCLC = test system: HOP-92 NSCLC
HS 578T breast = test system: HS 578T breast
NCI-H226 lung = test system: NCI-H226 lung
OVCAR-4 ovarian = test system: OVCAR-4 ovarian
SW-620 colon = test system: SW-620 colon
OVCAR-3 ovarian = test system: OVCAR-3 ovarian

O=C(CSc1nnc(-c2ccc(Cl)cc2)n1-c1ccccc1)Nc1ccc(Cl)cc1
5.15 µM: TGI (A498 renal)
inactive: GI50 (SF-539 CNS) 2.38 µM | GI50 (HCT-15 colon) 87.1 µM | GI50 (NCI-H23 lung) 5.09 µM | GI50 (SR leukemia) 4.28 µM | GI50 (NCI/ADR-RES ovarian) 4.06 µM | GI50 (HT29 colon) 7.79 µM | GI50 (CAKI-1 renal) 2.95 µM | GI50 (A498 renal) 1.88 µM | GI50 (UACC-62 melanoma) 4.81 µM | GI50 (HCT-116 colon) 1.98 µM | GI50 (UO-31 renal) 1.83 µM | GI50 (NCI-H460 lung) 2.77 µM | GI50 (KM12 colon) 47.1 µM | GI50 (MCF7 breast) 5.76 µM | GI50 (DU-145 prostate) 7.41 µM | GI50 (SK-MEL-28 melanoma) 15.4 µM | GI50 (RXF 393 renal) 2.03 µM | GI50 (IGROV1 ovarian) 5.24 µM | GI50 (U251 CNS) 3.2 µM | GI50 (SK-MEL-2 melanoma) 13.6 µM | GI50 (SNB-75 CNS) 1.57 µM | GI50 (COLO 205 colon) 15.7 µM | GI50 (CCRF-CEM leukemia) > 100 µM | GI50 (T-47D breast) 3.2 µM | GI50 (SNB-19 CNS) 7.08 µM | GI50 (ACHN renal) 1.76 µM | GI50 (SK-OV-3 ovarian) 4.53 µM | GI50 (M14 melanoma) 25.1 µM | GI50 (SF-268 CNS) 4.85 µM | GI50 (NCI-H522 lung) 3.11 µM | GI50 (OVCAR-5 ovarian) 4.89 µM | GI50 (HOP-62 NSCLC) 3.34 µM | GI50 (MALME-3M melanoma) 3.67 µM | GI50 (BT-549 breast) 3.66 µM | GI50 (TK-10 renal) 2.2 µM | GI50 (OVCAR-8 ovarian) 3.79 µM | GI50 (HCC-2998 colon) 43.9 µM | GI50 (K-562 leukemia) 13.4 µM | GI50 (SK-MEL-5 melanoma) 8.07 µM | GI50 (MDA-MB-435) 21.5 µM | GI50 (UACC-257 melanoma) 39.8 µM | GI50 (SF-295 CNS) 5.56 µM | GI50 (MOLT-4 leukemia) > 100 µM | GI50 (HL-60(TB) leukemia) > 100 µM | GI50 (786-0 renal) 1.92 µM | GI50 (SN12C renal) 3.19 µM | GI50 (EKVX NSCLC) 20.9 µM | GI50 (A549 NSCLC) 3.67 µM | GI50 (RPMI-8226 leukemia) 4.14 µM | GI50 (LOX IMVI melanoma) 2.98 µM | GI50 (PC-3 prostate) 20.1 µM | GI50 (HOP-92 NSCLC) 2.72 µM | GI50 (HS 578T breast) 3.52 µM | GI50 (NCI-H226 lung) 3.2 µM | GI50 (OVCAR-4 ovarian) 3.38 µM | GI50 (SW-620 colon) 8.68 µM | GI50 (OVCAR-3 ovarian) 6.2 µM
22.3 µM: TGI (MALME-3M melanoma)
5.2 µM: TGI (UO-31 renal)
4.98 µM: TGI (RXF 393 renal)
17.3 µM: TGI (SK-OV-3 ovarian)
29.9 µM: TGI (OVCAR-8 ovarian)
20.8 µM: TGI (NCI-H226 lung)
9.6 µM: TGI (HOP-92 NSCLC)
13 µM: TGI (CAKI-1 renal)
4.57 µM: TGI (SNB-75 CNS)
17.2 µM: TGI (NCI-H522 lung)
5.18 µM: TGI (SF-539 CNS)
5.76 µM: TGI (TK-10 renal)
16 µM: TGI (HOP-62 NSCLC)
43.7 µM: TGI (NCI-H23 lung)
63.8 µM: TGI (SK-MEL-2 melanoma)
4.09 µM: TGI (786-0 renal)
4.29 µM: TGI (HCT-116 colon)
11.5 µM: TGI (U251 CNS)
57.8 µM: TGI (OVCAR-3 ovarian)
21.1 µM: TGI (SF-295 CNS)
3.98 µM: TGI (ACHN renal)
10.2 µM: TGI (LOX IMVI melanoma)
> 100 µM: TGI (HCT-15 colon) | TGI (SR leukemia) | TGI (NCI/ADR-RES ovarian) | TGI (HT29 colon) | TGI (UACC-62 melanoma) | TGI (KM12 colon) | TGI (MCF7 breast) | TGI (DU-145 prostate) | TGI (SK-MEL-28 melanoma) | TGI (IGROV1 ovarian) | TGI (COLO 205 colon) | TGI (CCRF-CEM leukemia) | TGI (T-47D breast) | TGI (SNB-19 CNS) | TGI (M14 melanoma) | TGI (SF-268 CNS) | TGI (OVCAR-5 ovarian) | TGI (HCC-2998 colon) | TGI (K-562 leukemia) | TGI (SK-MEL-5 melanoma) | TGI (MDA-MB-435) | TGI (UACC-257 melanoma) | TGI (MOLT-4 leukemia) | TGI (HL-60(TB) leukemia) | TGI (SN12C renal) | TGI (EKVX NSCLC) | TGI (A549 NSCLC) | TGI (RPMI-8226 leukemia) | TGI (PC-3 prostate) | TGI (HS 578T breast) | TGI (OVCAR-4 ovarian) | TGI (SW-620 colon)
38.8 µM: TGI (BT-549 breast)
8.09 µM: TGI (NCI-H460 lung)
